# Test results published in patent US7429660B2, “ATM inhibitors” (Kudos Pharmaceuticals Limited, priority 2003, dated 2008).
# Biological target: T1, ATM protein immunoprecipitated from HeLa cell nuclear extract (Homo sapiens, UniProt Q13315)
# T1 construct: ATM protein was immunoprecipitated from HeLa cell nuclear extract; endogenous in cells; host or cells: HeLa cell nuclear extract (immunoprecipitated with rabbit polyclonal anti-ATM antiserum)
# Experiment: In vitro ATM inhibition assay (phosphorylation of GSTp53N66 on serine 15, chemiluminescent detection); further: tested normally from 100 µM down to 0.1 nM
# Assay type: biochemical
# Details: read-out: IC50 values (the concentration at which 50% of the enzyme activity is inhibited), ATM inhibition
# Experimental: In order to assess the inhibitory action of the compounds against ATM in vitro, the following assay was used to determine IC50 values. ATM protein was immunoprecipitated from HeLa cell nuclear extract using rabbit polyclonal anti-sera raised to the C-terminal ˜500 amino-acid residues of the human ATM protein. […] 10 μl of immunoprecipitated ATM in Buffer C (50 mM Hepes, pH 7.4, 6 mM MgCl2, 150 mM NaCl, 0.1 mM sodium orthovanadate, 4 mM MnCl2, 0.1 mM dithiothreitol, 10% glycerol) was added to 32.5 μl of buffer C containing 1 μg of the ATM substrate GSTp53N66 in a V-bottomed 96 well polypropylene plate. The GSTp53N66 substrate is the amino terminal 66 amino acid residues of human wild type p53 fused to glutathione S-transferase. […] Varying concentrations of inhibitor were then added. […] After 10 minutes of incubation at 37° C., the reactions were initiated by the addition of 5 μl of 500 μM Na-ATP. After 1 hour with shaking at 37° C., 150 μl of phosphate buffered saline (PBS) was added to the reaction and the plate centrifuged at 1500 rpm for 10 minutes. 5 μl of the reaction was then transferred to a 96 well opaque white plate containing 45 μl of PBS to allow the GSTp53N66 substrate to bind to the plate wells. The plate was covered and incubated at room temperature for 1 hour with shaking before discarding the contents. The plate wells were washed twice by the addition of PBS prior to the addition of 3% (w/v) bovine serum albumin (BSA) in PBS. The plate was incubated at room temperature for 1 hour with shaking before discarding the contents and washing twice with PBS. To the wells, 50 μl of a 1:10,000 dilution of primary phosphoserine-15 antibody (Cell Signaling Technology, #9284L) in 3% BSA/PBS was added to detect the phosphorylation event on the serine 15 residue of p53 elicited by the ATM kinase. […] The wells were then washed four times with PBS before the addition of chemiluminescence reagent (NEN Renaissance, NEL105). The plate was then shaken briefly, covered with a transparent plate seal and transferred to a TopCount NXT for chemiluminescent counting. Counts per second, following a one second counting time, were recorded for each reaction.
# The enzyme activity for each compound is then calculated using the following equation:
# [formula] Results In vitro ATM assays
# Compounds were assayed for ATM inhibition activity using the method described above. […] These are determined over a range of different concentrations, normally from 100 μM down to 0.1 nM. Such IC50 values are used as comparative values to identify increased compound potencies.
# T1 sequence (Q13315 whole entry): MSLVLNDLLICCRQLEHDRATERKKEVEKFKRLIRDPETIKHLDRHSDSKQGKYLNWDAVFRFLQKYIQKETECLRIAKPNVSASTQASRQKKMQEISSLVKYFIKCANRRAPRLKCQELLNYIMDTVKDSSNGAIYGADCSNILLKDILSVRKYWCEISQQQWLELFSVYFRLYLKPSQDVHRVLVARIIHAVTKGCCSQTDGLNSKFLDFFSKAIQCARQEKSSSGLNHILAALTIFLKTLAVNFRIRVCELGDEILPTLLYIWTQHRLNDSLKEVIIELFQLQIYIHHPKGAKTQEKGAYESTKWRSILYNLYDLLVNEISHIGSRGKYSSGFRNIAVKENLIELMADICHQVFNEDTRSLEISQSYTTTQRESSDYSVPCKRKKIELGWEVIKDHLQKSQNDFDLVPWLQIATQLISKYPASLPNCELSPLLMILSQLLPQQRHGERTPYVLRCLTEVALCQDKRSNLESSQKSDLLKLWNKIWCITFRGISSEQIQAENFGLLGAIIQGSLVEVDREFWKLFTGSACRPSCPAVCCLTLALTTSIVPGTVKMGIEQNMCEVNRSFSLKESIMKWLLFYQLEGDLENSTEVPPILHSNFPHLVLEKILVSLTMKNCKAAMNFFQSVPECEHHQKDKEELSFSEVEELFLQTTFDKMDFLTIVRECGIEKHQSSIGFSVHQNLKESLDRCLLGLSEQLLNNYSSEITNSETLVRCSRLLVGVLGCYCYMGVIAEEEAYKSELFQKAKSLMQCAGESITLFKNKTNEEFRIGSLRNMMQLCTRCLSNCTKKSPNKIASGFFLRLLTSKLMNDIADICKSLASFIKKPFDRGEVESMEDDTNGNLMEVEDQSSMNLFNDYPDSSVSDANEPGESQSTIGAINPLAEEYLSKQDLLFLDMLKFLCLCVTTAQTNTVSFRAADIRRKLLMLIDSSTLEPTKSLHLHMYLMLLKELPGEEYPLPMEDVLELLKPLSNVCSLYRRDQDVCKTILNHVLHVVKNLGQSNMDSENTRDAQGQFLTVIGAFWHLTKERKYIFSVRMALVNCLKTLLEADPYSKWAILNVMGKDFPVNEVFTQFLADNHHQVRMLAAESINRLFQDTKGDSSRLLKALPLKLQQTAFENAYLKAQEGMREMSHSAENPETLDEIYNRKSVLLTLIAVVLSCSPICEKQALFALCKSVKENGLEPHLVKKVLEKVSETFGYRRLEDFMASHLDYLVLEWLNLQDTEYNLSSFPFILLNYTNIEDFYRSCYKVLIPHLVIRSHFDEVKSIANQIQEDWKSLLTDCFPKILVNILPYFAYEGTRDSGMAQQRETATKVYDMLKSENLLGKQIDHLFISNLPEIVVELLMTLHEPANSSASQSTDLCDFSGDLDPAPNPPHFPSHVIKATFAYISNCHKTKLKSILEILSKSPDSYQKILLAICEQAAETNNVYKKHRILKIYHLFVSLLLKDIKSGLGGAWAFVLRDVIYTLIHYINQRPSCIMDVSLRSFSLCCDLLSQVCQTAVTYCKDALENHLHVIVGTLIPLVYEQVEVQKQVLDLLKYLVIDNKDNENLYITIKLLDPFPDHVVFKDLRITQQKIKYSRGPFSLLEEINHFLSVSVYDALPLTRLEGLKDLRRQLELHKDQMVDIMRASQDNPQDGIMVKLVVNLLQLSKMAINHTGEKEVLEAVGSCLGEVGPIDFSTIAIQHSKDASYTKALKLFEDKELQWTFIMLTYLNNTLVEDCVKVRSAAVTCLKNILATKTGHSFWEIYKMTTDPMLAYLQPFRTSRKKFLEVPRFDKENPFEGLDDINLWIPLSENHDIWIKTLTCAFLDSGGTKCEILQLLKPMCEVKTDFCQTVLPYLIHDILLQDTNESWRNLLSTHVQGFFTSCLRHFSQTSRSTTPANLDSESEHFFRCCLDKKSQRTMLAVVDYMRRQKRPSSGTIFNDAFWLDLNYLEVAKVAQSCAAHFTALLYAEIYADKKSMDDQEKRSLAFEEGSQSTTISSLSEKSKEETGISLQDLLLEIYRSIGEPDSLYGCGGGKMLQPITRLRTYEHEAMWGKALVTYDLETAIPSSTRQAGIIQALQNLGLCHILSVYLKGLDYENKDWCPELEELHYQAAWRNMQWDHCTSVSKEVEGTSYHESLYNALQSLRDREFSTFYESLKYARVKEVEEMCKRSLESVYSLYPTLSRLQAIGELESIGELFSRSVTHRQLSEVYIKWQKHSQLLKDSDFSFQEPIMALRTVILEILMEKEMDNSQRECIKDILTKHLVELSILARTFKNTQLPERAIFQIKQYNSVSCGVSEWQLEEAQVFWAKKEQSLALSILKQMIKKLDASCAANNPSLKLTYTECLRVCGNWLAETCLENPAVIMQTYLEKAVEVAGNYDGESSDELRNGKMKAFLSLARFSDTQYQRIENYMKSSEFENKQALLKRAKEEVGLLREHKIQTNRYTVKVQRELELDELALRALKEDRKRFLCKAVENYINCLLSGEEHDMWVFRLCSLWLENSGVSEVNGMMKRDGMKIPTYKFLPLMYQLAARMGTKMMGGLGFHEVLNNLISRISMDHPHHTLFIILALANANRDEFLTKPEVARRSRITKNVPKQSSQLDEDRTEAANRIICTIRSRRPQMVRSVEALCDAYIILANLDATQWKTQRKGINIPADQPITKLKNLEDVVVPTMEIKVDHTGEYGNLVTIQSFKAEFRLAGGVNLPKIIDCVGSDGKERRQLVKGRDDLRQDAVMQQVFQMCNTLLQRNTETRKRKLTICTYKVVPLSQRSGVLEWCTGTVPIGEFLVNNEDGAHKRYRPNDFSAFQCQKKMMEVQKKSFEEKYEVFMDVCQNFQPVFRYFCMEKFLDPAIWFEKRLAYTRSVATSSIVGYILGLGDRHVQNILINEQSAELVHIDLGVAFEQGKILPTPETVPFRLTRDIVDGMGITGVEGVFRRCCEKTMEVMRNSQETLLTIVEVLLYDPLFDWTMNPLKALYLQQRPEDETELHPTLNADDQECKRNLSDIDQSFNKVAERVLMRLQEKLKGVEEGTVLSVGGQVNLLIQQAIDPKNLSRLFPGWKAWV
row,Compound,IC50
1,CN1CCN(CC(=O)Nc2ccc3c(c2)Sc2cccc(-c4cc(=O)cc(N5CCOCC5)o4)c2S3)CC1 [Compound 54],< 200 nM
2,O=C(CN(CCO)CCO)Nc1ccc2c(c1)Sc1cccc(-c3cc(=O)cc(N4CCOCC4)o3)c1S2 [Compound 55],< 200 nM
3,COCCN(CCOC)CC(=O)Nc1ccc2c(c1)Sc1cccc(-c3cc(=O)cc(N4CCOCC4)o3)c1S2 [Compound 56],< 200 nM
4,O=C(CNCCO)Nc1ccc2c(c1)Sc1cccc(-c3cc(=O)cc(N4CCOCC4)o3)c1S2 [Compound 57],< 200 nM
5,NCCNCC(=O)Nc1ccc2c(c1)Sc1cccc(-c3cc(=O)cc(N4CCOCC4)o3)c1S2 [Compound 58],< 200 nM
6,O=C(CN1CCCC1)Nc1ccc2c(c1)Sc1cccc(-c3cc(=O)cc(N4CCOCC4)o3)c1S2 [Compound 59],< 200 nM
7,CN1CCCN(CC(=O)Nc2ccc3c(c2)Sc2cccc(-c4cc(=O)cc(N5CCOCC5)o4)c2S3)CC1 [Compound 60],< 200 nM
8,O=C(CN1CCCNCC1)Nc1ccc2c(c1)Sc1cccc(-c3cc(=O)cc(N4CCOCC4)o3)c1S2 [Compound 61],< 200 nM
9,O=C(CN1CCCCCC1)Nc1ccc2c(c1)Sc1cccc(-c3cc(=O)cc(N4CCOCC4)o3)c1S2 [Compound 62],< 200 nM
10,O=C(CNCCCN1CCOCC1)Nc1ccc2c(c1)Sc1cccc(-c3cc(=O)cc(N4CCOCC4)o3)c1S2 [Compound 63],< 200 nM
11,COc1ccc(CNCC(=O)Nc2ccc3c(c2)Sc2cccc(-c4cc(=O)cc(N5CCOCC5)o4)c2S3)cc1 [Compound 64],< 200 nM
12,O=C(CSc1ncn[nH]1)Nc1ccc2c(c1)Sc1cccc(-c3cc(=O)cc(N4CCOCC4)o3)c1S2 [Compound 65],< 200 nM
13,O=C(CNCC1CCCO1)Nc1ccc2c(c1)Sc1cccc(-c3cc(=O)cc(N4CCOCC4)o3)c1S2 (centres unmarked) [Compound 68],< 200 nM
14,CN(C)CC(=O)Nc1ccc2c(c1)Sc1cccc(-c3cc(=O)cc(N4CCOCC4)o3)c1S2 [Compound 69],< 200 nM
15,O=C(CNCc1ccncc1)Nc1ccc2c(c1)Sc1cccc(-c3cc(=O)cc(N4CCOCC4)o3)c1S2 [Compound 71],< 200 nM
16,CCN(CC(=O)Nc1ccc2c(c1)Sc1cccc(-c3cc(=O)cc(N4CCOCC4)o3)c1S2)Cc1ccncc1 [Compound 72],< 200 nM
17,CN(C)CCN(C)CC(=O)Nc1ccc2c(c1)Sc1cccc(-c3cc(=O)cc(N4CCOCC4)o3)c1S2 [Compound 73],< 200 nM
18,CC(=O)N1CCN(CC(=O)Nc2ccc3c(c2)Sc2cccc(-c4cc(=O)cc(N5CCOCC5)o4)c2S3)CC1 [Compound 77],< 200 nM

# More lines, now with the values ahead:
row,IC50,Compound
1,< 200 nM,CC(=O)Oc1ccccc1C(=O)Nc1ccc2c(c1)Sc1cccc(-c3cc(=O)cc(N4CCOCC4)o3)c1S2 [Compound 39]
2,< 200 nM,COc1cc(C(=O)Nc2ccc3c(c2)Sc2cccc(-c4cc(=O)cc(N5CCOCC5)o4)c2S3)cc(OC)c1OC [Compound 40]
3,< 200 nM,COC(=O)CCC(=O)Nc1ccc2c(c1)Sc1cccc(-c3cc(=O)cc(N4CCOCC4)o3)c1S2 [Compound 41]
4,< 200 nM,CC(=O)OCC(=O)Nc1ccc2c(c1)Sc1cccc(-c3cc(=O)cc(N4CCOCC4)o3)c1S2 [Compound 42]
5,< 200 nM,CC(=O)OC(C(=O)Nc1ccc2c(c1)Sc1cccc(-c3cc(=O)cc(N4CCOCC4)o3)c1S2)c1ccccc1 (centres unmarked) [Compound 43]
6,< 200 nM,O=C(Nc1ccc2c(c1)Sc1cccc(-c3cc(=O)cc(N4CCOCC4)o3)c1S2)c1ccc2nsnc2c1 [Compound 45]
7,< 200 nM,O=C(Nc1ccc2c(c1)Sc1cccc(-c3cc(=O)cc(N4CCOCC4)o3)c1S2)c1csc(-c2cccs2)n1 [Compound 46]
8,< 200 nM,COCCOCC(=O)Nc1ccc2c(c1)Sc1cccc(-c3cc(=O)cc(N4CCOCC4)o3)c1S2 [Compound 48]
9,< 200 nM,O=C(CN1CCOCC1)Nc1ccc2c(c1)Sc1cccc(-c3cc(=O)cc(N4CCOCC4)o3)c1S2 [Compound 51]
10,< 200 nM,O=C(CN1CCCCC1)Nc1ccc2c(c1)Sc1cccc(-c3cc(=O)cc(N4CCOCC4)o3)c1S2 [Compound 52]
11,< 200 nM,O=C(CN1CCNCC1)Nc1ccc2c(c1)Sc1cccc(-c3cc(=O)cc(N4CCOCC4)o3)c1S2 [Compound 53]
